Laboratory results taken from US10000771B2, “Nuclear targeting sequences” (Yeda Research and Development Co. Ltd., priority 2007, dated 2018).
Ends that are not written are not given here.

Columns and labels:
COS7 cells = test: Subcellular fractionation of 2GFP chimeras; type: cell-based
Description: FIG. 9A is an autoradiograph illustrating the subcellular fractionation of transfected SPS, APA, and EPE peptides fused to a 2GFP in COS7 cells. Western blot analysis of aliquots of the fractions were stained with anti GFP Ab to detect the different chimaras, and with anti tubulin and anti c-Jun Abs as markers for the cytoplasmic and nuclear fractions respectively.
Cellular Fractionation: Transfected COS7 cells were starved (0.1% FBS) for 16 h, after which they were washed with ice-cold PBS, suspended in ice-cold buffer H, and centrifuged (12,000×g, 5 min). Then, the nuclear and cytosolic fractions were isolated as described [H. Rubinfeld, T. Hanoch, R. Seger, J. Biol. Chem. 274, 30349 (1999)]. Briefly, the pellets were suspended in 0.1% NP-40 followed by centrifugation (12,000×g, 5 min). The supernatant, containing the cytosolic fraction, was boiled in sample buffer. The pellet was suspended in extraction buffer (420 mM Nacl, 50 mM β-glycerophosphate, 0.5 mM Na3VO4, 1.5 mM MgCl2, 0.2 mM EDTA, 1 mM DTT, 25% glycerol), incubate on ice for 10 min, sonicated (50 W, 2×7 sec), and centrifuged (12,000×g, 5 min). The supernatant, containing the nuclear fraction, was subjected to Western blot.

CHO cells [1] = test: Fluorescence microscopy of 2GFP chimeras (subcellular localization); type: cell-based; conditions: 24 hr post transfection, serum-starved
Description: FIGS. 8A-8H are photomicrographs illustrating that SPS, APA, and EPE peptides fused to a 2GFP chimera modify its subcellular localization. CHO cells were grown on cover slips and transfected with 19 amino acid from the kinase insert domain of ERK2 including the SPS region (GFP-SPS) fused to a 2GFP chimera and with the same chimeras with substitution of the Ser to Ala (GFP-APA) or substitution to Glu (GFP-EPE). Twenty-four hr later, the cells were serum-starved for 16 hr, fixed, stained with DAPI and visualized by a fluorescence microscope.
(§1) Immunofluorescence Microscopy. Cells were fixed (30 min in 3% paraformaldehyde in PBS or 10 min with ice-cold methanol), followed by 5-min permeabilization with 0.2% Triton X-100 in PBS (23° C.). The fixed cells were sequentially incubated with the appropriate Abs (45 min) followed by rhodamine-conjugated secondary Abs (45 min) and DAPI. Slides were visualized using a fluorescence microscope (Nikon, Japan) at 400× magnifications.
To validate the general importance of the SPS domain, a 19 amino acid sequence surroundings the SPS or the APA and EPE mutants was fused to a dimer of GFP proteins (2GFP). Cellular distribution of the chimeras was detected in CHO cells 24 hr post transfection of the GFP constructs.

endogenous ERKs = test: Effect of 2GFP chimeras on nuclear translocation of endogenous ERKs; type: cell-based; conditions: CHO cells overexpressing the chimera, TPA 250 nM, 15 min
Description: FIGS. 10A-10X illustrate the effects of the 2GFP chimeras on the nuclear translocation of endogenous ERKs. CHO cells overexpressing 2GFP, 2GFP-SPS, 2GFP-APA and 2GFP-EPE were serum starved and treated with or without TPA (250 nM, 15 min). Subsequently, the cells were fixed and stain with anti-ERK2 (C-14) Ab and with DAPI.
as §1

importin-7 = target: T1, importin-7 (Homo sapiens, UniProt O95373); test: Coimmunoprecipitation with importin-7; type: binding; conditions: HeLa cells, coimmunoprecipitation, without EGF stimulation
T1 construct: endogenous in cells; host or cells: HeLa
Description: FIGS. 19A-19C are autoradiographs illustrating that phospho-SPS interacts with importin-7 and releases Nup153c binding without involvment of importin-β. […]. Interaction of ERK2 with Importin-7 is enhanced by EGF stimulation and EPE mutation. HeLa cells overexpressing WT-ERK (WT), ERK-APA (APA), ERK-EPE (EPE) or GFP were serum starved and treated with EGF (50 ng/ml, 10 min). The extracts of the treated cells were then subjected to coimmunoprecipitation using A/G beads pre-conjugated with anti GFP Ab and mild washes. The coimmunoprecipitated importin-7 (first panel) and importin-β (third panel), as well as their loading amounts (panels 2 and 4 respectively) were determined by WB using anti importin-7 (αImp7) and importin-β (αImpβ) Abs. The equal amount of immunoprecipitated ERKs was determined with anti GFP (αGFP; IP) Ab. FIG. 19B. Interaction of 2GFP-SPS and its mutants with importin-7. HeLa cells overexpressing 2GFP, 2GFP-SPS, 2GFP-APA and 2GFP-EPE constructs were subjected to coimmunoprecipitation as described in FIG. 19A (without EGF stimulation). FIG. 19C. Interaction of NUP153 with WTERK2 and its APA and EPE mutants. NUP153c is elevated in APA-ERK2, but reduced in EPE-ERK2. Immunoprecipitated and stringently washed WT-ERK2 (WT), APA-ERK2 (APA) or ERK2 from […] cells pre-treated with or without TPA (250 nM, 15 min) were incubated with 0.5 μg recombinant His-Nup153c. This was followed by mild washing, and the beads were then subjected to Western blot analysis using anti His (αHis) and anti αGFP Abs.
Immunoprecipitation. Cellular extracts of stimulated transfected cells, were incubated with anti-GFP antibody preconugated to A/G beads (Santa Cruz; (2 hr, 4° C.). Subsequently, the beads were washed twice with HNTG buffer and once with 0.5 M LiCl. The immunoprecipitates were subjected either to Western blotting as described above or to an in vitro phosphatase assay as described under Results.

SPS domain = test: SPS phosphorylation detected by anti pSPS Ab Western blot; type: cell-based; conditions: cells pretreated (15 min) prior to EGF 50 ng/ml stimulation
Description: FIGS. 4A-4I are autoradiographs characterizing SPS phosphorylation using an Ab to the phosphorylated SPS domain. FIG. 4A illustrates an elevation of pSPS detection upon stimulation. COS cells were transfected with WT-GFP-ERK2. Twenty-four hr after transfection, the cells were serum-starved for 16 hr and subsequently treated with the general stimulator VOOH (V, 100 μM Na3VO4 and 200 μM H2O2, 15 min), TPA (T, 250 nM, 15 min), EGF (E, 50 ng/ml for 15 min), or left untreated (NT). The GFP-ERK2 was immunoprecipitated with anti GFP Ab, extensively washed, and the IP was then subjected to Western blotting with anti phospho SPS-ERK (αphoSPS-ERK) and anti general ERK (αgen-ERK) Abs. FIG. 4B is a time course of SPS phosphorylation. COS7 cells overexpressing WT-GFP-ERK2 were serum starved followed by EGF stimulation for the indicated time points. The lysates were then subjected to Western blot analysis as in FIG. 4A. FIGS. 4C-D. GFP-ERK2 was immunoprecipitated from VOOH stimulated (Act) or non-stimulated (NT), transfected COS7 cells as above. The immunoprecipitated protein was then incubated with shrimp's alkaline phosphates (SAP, 15 units, 30 min, 30° C. in the manufacturer digestion buffer), and subjected to Western blot analysis with anti phosphoSPS-ERK (αpSPS; FIG. 4C), anti phosphoTEY-ERK (αpTEY; FIG. 4D), and anti general-ERK Ab (αgen-ERK; FIGS. 4C, D). FIG. 4E. Elevation of anti pSPS Ab immunoreactivity upon stimulation of endogenous ERKs. Following serum starvation COS7 cells were treated with EGF (50 ng/ml) or VOOH (V, 100 μM Na3VO4 and 200 μM H2O2) for the indicated times. SPS phosphorylation was detected using the anti pSPS Abs, and this was compared to the amount of genral ERKs detected by αgERK. FIG. 4F. Specificity of the anti pSPS Ab. COS7 cells overexpressing either GFP-ERK2 or 244-6A mutant were serum starved for 16 hr, and then treated with EGF (50 ng/ml) for 15 min following WB analysis using αpSPS and αgERK Abs. FIG. 4G. TEY phosphorylation is not required for SPS phosphorylation. COS7 cells overexpressing WT-ERK2 or TEY-AAA were treated as described in D. FIG. 4H. COS7 cells were treated with or without UO126 prior (15 min) to EGF (50 ng/ml) stimulation for the indicated times. SPS-phosphorylation was detected using αpSPS and αgERK Abs. FIG. 4I. Phosphorylation of SPS is mediated by ERK autophosphorylation. […] The phosphorylation (^32P-ERK2) of ERK and its mutants was detected by autoradiography. […]
FIG. 9B is an autoradiograph illustrating that stimulation elevates pSPS phosphorylation of 2GFP-SPS construct. […] The total amount of immunoprecipitated 2GFP-SPS was detected with αGFP Ab. […]

CHO cells [2] = test: Microscopy of MEK1-GFP constructs (subcellular localization); type: cell-based
Description: FIGS. 14A-14R are photomicrographs illustrating that the NTS motif regulates MEK1 shuttling into the nucleus. CHO cells overexpressing WT-GFP-MEK1 (WT), AAA-GFP-MEK1 (AAA-MEK) and EPE-GFP-MEK1 (EPE-MEK) were starved for 16 hr and treated with LMB (5 ng/ml, 1 hr; LMB), LMB (5 ng/ml, 1 hr)+TPA (250 nM, 15 min; LMB+TPA) or left un treated (NT). Subsequently the cells were fixed, stained with DAPI and visualized by a fluorescent microscope.
as §1
Other proteins that translocate into the nucleus upon stimulation are the MEKs [H. Jaaro, H. Rubinfeld, T. Hanoch, R. Seger, Proc. Natl. Acad. Sci. USA 94, 3742 (1997)]. […] This TPT sequence was also shown to be phosphorylated upon cellular stimulation [S. Matsuda, Y. Gotoh, E. Nishida, J Biol Chem 268, 3277 (Feb. 15, 1993)], and to be involved in protein-protein interaction that can determine subcellular localization [A. Nantel, K. Mohammad-Ali, J. Sherk, B. I. Posner, D. Y. Thomas, J Biol Chem 273, 10475 (Apr. 24, 1998). […]

T1 sequence (O95373 whole entry): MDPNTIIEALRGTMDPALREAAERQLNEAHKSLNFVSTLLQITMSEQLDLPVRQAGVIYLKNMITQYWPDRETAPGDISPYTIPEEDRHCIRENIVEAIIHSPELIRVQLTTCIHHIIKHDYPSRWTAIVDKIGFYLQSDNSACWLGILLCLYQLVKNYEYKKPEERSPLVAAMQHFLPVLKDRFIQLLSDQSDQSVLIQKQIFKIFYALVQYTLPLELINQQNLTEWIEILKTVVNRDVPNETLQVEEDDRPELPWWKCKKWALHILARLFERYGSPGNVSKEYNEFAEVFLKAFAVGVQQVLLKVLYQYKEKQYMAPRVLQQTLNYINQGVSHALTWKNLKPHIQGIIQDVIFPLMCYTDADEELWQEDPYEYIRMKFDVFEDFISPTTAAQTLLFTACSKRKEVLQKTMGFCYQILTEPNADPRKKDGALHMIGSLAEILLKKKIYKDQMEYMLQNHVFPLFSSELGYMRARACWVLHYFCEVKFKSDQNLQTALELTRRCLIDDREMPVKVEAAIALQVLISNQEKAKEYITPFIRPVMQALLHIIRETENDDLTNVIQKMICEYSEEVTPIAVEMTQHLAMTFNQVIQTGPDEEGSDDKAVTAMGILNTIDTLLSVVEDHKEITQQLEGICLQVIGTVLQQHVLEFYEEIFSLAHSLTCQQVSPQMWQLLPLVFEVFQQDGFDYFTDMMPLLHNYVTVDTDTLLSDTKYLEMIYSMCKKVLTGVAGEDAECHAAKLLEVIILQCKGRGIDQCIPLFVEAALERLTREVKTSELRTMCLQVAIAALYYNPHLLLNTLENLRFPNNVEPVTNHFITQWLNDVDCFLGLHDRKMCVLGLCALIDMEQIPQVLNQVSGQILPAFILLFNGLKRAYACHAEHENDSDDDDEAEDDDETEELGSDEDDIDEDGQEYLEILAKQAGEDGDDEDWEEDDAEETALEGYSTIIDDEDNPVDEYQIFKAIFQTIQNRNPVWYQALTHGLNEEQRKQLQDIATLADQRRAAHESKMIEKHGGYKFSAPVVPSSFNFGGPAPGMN

2GFP-APA: 2GFP-WT with the Ser residues in the SPS domain mutated to Ala (LDQLNHILGILGAPAQEDL; also: fused to 2GFP (large carrier))
localized in the nucleus (COS7 cells): 3% | cellular distribution (CHO cells [1]): mainly in the cytoplasm and perinuclear region | inhibition of TPA-induced translocation of endogenous ERKs (endogenous ERKs): more so | interaction of 2GFP constructs with importin-7 (importin-7): reduced this interaction

2GFP-EPE: 2GFP-WT with the Ser residues in the SPS domain mutated to Glu (LDQLNHILGILGEPEQEDL; also: fused to 2GFP (large carrier))
localized in the nucleus (COS7 cells): 90% | cellular distribution (CHO cells [1]): mainly in the nucleus | interaction of 2GFP constructs with importin-7 (importin-7): elevated it

N#CC(=C(/N)Sc1ccccc1N)/C(C#N)=C(\N)Sc1ccccc1N [U0126, reference compound]
anti pSPS Ab reaction with GFP-ERK2 after inhibitor pretreatment (SPS domain): did not react

EPE-MEK1: GFP-MEK1 with residues 386 and 388 replaced with Glu
nuclear accumulation after TPA stimulation (CHO cells [2]; LMB 5 ng/ml + TPA 250 nM, 15 min): localized in the nucleus even without stimulation | nuclear translocation after leptomycin B (CHO cells [2]; LMB 5 ng/ml, 1 hr): increased
